From patent publication US20100062078A1, “PHARMACEUTICAL COMPOSITION FOR TREATING CANCER AND THE SIGNALING PATHWAY THEREOF” (priority 2008, published 2010)

What was measured:
p38 MAPK = experiment: Immunoblotting, phosphorylation in LNCap cells; format: cell-based, human; conditions: LNCap, exposure for 1 hour
Description: (§1) The concentration of protein supernatant was further determined using the Bio-Rad protein assay kit (Bio-Rad Laboratories, Hercules, Calif.). Whole cell lysates were separated on polyacrylamide sodium dodecyl sulfate (SDS) gels and the proteins were transferred onto the nitrocellulose membrane. Proteins were detected sequentially by the specific primary antibodies, followed by peroxidase-conjugated secondary antibodies, and visualized by the Enhanced chemiluminescence detection system (Amersham, N.J.).

JNK½ = experiment: Immunoblotting, phosphorylation in LNCap cells; format: cell-based, human; conditions: exposure for 1 hour
Description: as §1

RT4 = experiment: XTT cell proliferation assay (growth inhibition); format: cell-based, human
Method: (§2) Cells were seeded at 7×10^3 per well in 96-well culture plates before treatment with different concentrations of protoapigenone for 12, 24 and/or 48 hours. Next, the cytotoxicity of protoapigenone was determined using XTT cell proliferation assay (Sigma, St. Louis, Mo.). The absorbance of wavelength at 490 nm (OD490) and 650 nm (OD650) were determined respectively by enzyme-linked immunosorbent assay (ELISA) reader, and 50% of inhibitory concentration (IC50) was calculated by the value of OD490-OD650. In addition, in order to evaluate the long-term effect, the cells were treated with different concentration of protoapigenone for 3 hours, then were incubated with fresh medium for 14 days so as to form colonies. Finally, the cells were stained with crystal violet and were observed under the microscope.

LNCap = experiment: XTT cell proliferation assay (growth inhibition); format: cell-based, human; conditions: Homo sapiens; LNCap, 48-hour treatment
Method: as §2

T24 = experiment: XTT cell proliferation assay (growth inhibition); format: cell-based, human
Method: as §2

Hep 3B = experiment: XTT cell proliferation assay (growth inhibition); format: cell-based, human
Method: as §2

SKOV3 = experiment: Annexin V apoptosis assay; format: cell-based, human; conditions: SKOV3, 10 μM, 3 hours
Method: (§3) The theory of this assay is to detect early apoptotic cells during the apoptotic progression. The ovarian cancer cells and the prostate cancer cells respectively were incubated with protoapigenone at 10 μM for 3 hours on chamber slides, washed with cold PBS twice and stained with a binding buffer containing annexin V-fluorescein isothiocyanate (FITC) (1 mg/ml; Strong Biotech, Taipei, Taiwan) and 4,6-diamidino-2-phenylinodole (Sigma-Aldrich) at 25° C. for 15 minutes. The stained cells were washed with PBS twice and observed under the fluorescent microscope.

MDAH-2774 [1] = experiment: Annexin V apoptosis assay; format: cell-based, human; conditions: MDAH-2774, 10 μM, 3 hours
Method: as §3

LNCap cells [2] = experiment: Annexin V apoptosis assay; format: cell-based, human; conditions: 10 μM, 3 hours
Method: as §3

HeLa = experiment: Cell cycle distribution; format: cell-based, human
[3] = test system: LNCap prostate cancer cells; experiment: Nude mice xenograft model, tumor volume; format: in vivo; conditions: 5 weeks
Method: MDAH-2774 human ovarian cancer cells of 2×10^6 (or LNCap prostate cancer cells of 1×10^6) in 0.1 ml PBS were injected subcutaneously at the right flank of 6-week-old female nude mice (Foxnlun/Foxulun). When tumors became visible (approximately 3×3 mm in size), the mice were randomly grouped and treated intraperitoneally with protoapigenone or vehicle every other day. […] Tumor size and body weight were measured twice a week using calipers, and their tumor volumes were calculated according to a standard formula: width^2×length/2. After treatment with protoapigenone for 5 weeks, the mice xenografted with LNCap cells were sacrificed by deep anesthesia, and the blood sampling by cardiac aspiration was done immediately after anesthesia. Complete blood count of the nude mice blood was determined by Sysmex XE-2100 (TOA Medical Electronics, Kobe, Japan), and the plasma blood urea nitrogen (BUN), creatine (Cr), asparatate aminotransferase (AST), and alanine aminotransferase (ALT) levels were determined by Beckman LX20 (Beckman-Coulter, U.S.A.)

SKOV3 cells = experiment: Cell survival assay (trypan blue) at cell cycle phases; format: cell-based, human; conditions: 4 hours
Method: SKOV3 cells at various cell cycle phases were incubated in the 6-cm Petri dishes and treated with protoapigenone at different dosages ([…]). Subsequently, the cells were harvested and mixed with trypan blue at a ratio of 1:1. The stained apoptotic cells were observed under the microscope.

MDAH-2774 [4] = experiment: Clonogenic assay (colony formation); format: cell-based, human; conditions: 3 hours treatment, 14 days in fresh medium
Method: as §2

LNCap cells [5] = experiment: Cell cycle analysis (PI flow cytometry); format: cell-based, human; conditions: 6 hours and 12 hours
Method: The ovarian cancer cells and the prostate cancer cells respectively were treated with protoapigenone at different concentrations (0, 2.5, 5 and 10 μM) for 24 hours and 6 hours (or 12 hours). These cells were harvested by trypsin and fixed with 70% ethanol for 1 hour, washed with phosphate buffered saline (PBS) twice, and resuspended in propidium iodide (PI)/RNase A solution for 30 minutes. In accordance with the mechanism of DNA stained with propidium iodide, the cell cycle and sub-G1 distribution were detected by the FACScan flow cytometry (Becton Dickinson, San Jose, Calif.), and data analysis was done with CellQuest software (BD Bioscience).

O=C1C=CC(O)(c2cc(=O)c3c(O)cc(O)cc3o2)C=C1 [protoapigenone] was tested, and the “phosphorylation of p38 MAPK” value (p38 MAPK) was “dramatic increase”, the “phosphorylation of JNK½” value (JNK½) was “dramatic increase” and the “survival rate of RT4 cells” value (RT4; 4 μM and 8 μM, 24 and 48 hours) was “decreased”. For the same molecule, the IC50 (RT4; RT-4, human urinary bladder transitional cell papilloma RT4) was 5.11 ± 3.25 µM, the “survival rate of RT4 cells” value (RT4; low concentrations (0.5, 1 and 2 μM)) was “over 100%” and the IC50 (LNCap) was 3.7 ± 0.2 µM. For the same molecule, the IC50 (T24; Homo sapiens, T-24, bladder cancer T24) was 5.52 ± 0.598 µM, the growth inhibition (T24; T24, various concentrations) was “dose-dependent and time-dependent” and the growth inhibition (Hep 3B; Hep 3B, various concentrations) was “dose-dependent and time-dependent”. The IC50 (Hep 3B; Hep3B, human hepatocellular carcinoma Hep 3B) was 1860 nM, the “cell apoptosis (annexin V-FITC)” value (SKOV3) was 34.2% and the “cell apoptosis (annexin V-FITC)” value (MDAH-2774 [1]) was 24.5%. The “ratio of annexin V-FITC positive cells” value (LNCap cells [2]) was 24.2±1.3%, the cell cycle distribution (HeLa) was “arrested at G2/M phase” and the average tumor size ([3]; high dose (3.7 μM/g body weight i.p. every other day)) was 1153.0±218.7 mm^3. The average tumor size ([3]; low dose (0.37 μM/g body weight i.p. every other day)) was 1876.9±428.6 mm^3, the “decrease in number of SKOV3 cells proliferated at G2 phase” value (SKOV3 cells; 5 μM) was 20.3% and the “decrease in number of SKOV3 cells proliferated at M phase” value (SKOV3 cells; 5 μM) was 44.8%. The “decrease in number of SKOV3 cells proliferated at S phase” value (SKOV3 cells; 5 μM) was 23.5%, the “decrease in number of SKOV3 cells proliferated at G2 phase” value (SKOV3 cells; 10 μM) was 34.7% and the “decrease in number of SKOV3 cells proliferated at M phase” value (SKOV3 cells; 10 μM) was 70.5%. For the same molecule, the “decrease in number of SKOV3 cells proliferated at S phase” value (SKOV3 cells; 10 μM) was 45.4%, the “ratio of colony formation” value (MDAH-2774 [4]) was “decrease along with the increased protoapigenone concentrations” and the cell cycle distribution (LNCap cells [5]) was “arrests the LNCap cells at S and G2/M phases”.
